Test results: paper PMC11020070, “Discovery of Protease-Activated Receptor 4 (PAR4)-Tethered Ligand Antagonists Using Ultralarge Virtual Screening” (ACS Pharmacology & Translational Science, 2024)
Entries after “also recorded” stand apart in the source; their conditions may differ.

Tests used:
[1] = target: thrombin (Homo sapiens, UniProt P00734); test: Fluorometric assay of in vitro thrombin activity; assay type: biochemical
Source text: The enamine-purchased 7 compound was confirmed using mass spectrometry and ^1H NMR (data not shown) and then was independently resynthesized at Vanderbilt University (VU).
(1 picture or pasted object on this page, not shown here)

[2] = Microsomal stability, human liver microsomes; assay type: in vitro ADME; conditions: for CLint scaled at 1 µM: pH 7.4, human liver microsomes, in vitro, reaction started with NADPH; for human CLhep: predicted hepatic clearance from human liver microsomes
Description: The metabolic stability of each compound was investigated in mouse and human hepatic microsomes using substrate depletion methodology (% parent compound remaining). Prior to use, microsomes were removed from the freezer and allowed to thaw in a 37 °C water bath before being placed on wet ice.
(§1) In separate 96-well plates for each time point, a mixture of 0.1 M potassium phosphate-buffered (pH 7.4), 3 mM MgCl2, and 2.5 mg/mL microsomes were prewarmed at 37 °C for 5 min. Following the preincubation, a 1 μM test compound and 1 mM NADPH (for 3, 7, 15, 25, or 45 min time points) or buffer (for 0 min time point) were added to initiate the reaction. Under standard conditions, reactions were initiated with the addition of NADPH. To delineate the contribution of esterases, some experiments were initiated by the addition of substrate in the presence or absence of NADPH. Plates were incubated at 37 °C under ambient oxygenation. At the respective times, each plate’s reaction was precipitated by the addition of 2 volumes of ice-cold acetonitrile containing an internal standard (carbamazepine, 50 nM). The plates were centrifuged at 4000 rcf (4 °C) for 5 min. The resulting supernatants were transferred and diluted 1:1 (supernatant:water) into new 96-well plates in preparation for LC/MS/MS analysis. Each compound was assayed in triplicate within the same 96-well plate. The in vitro half-life (t1/2, min, eq 1), intrinsic clearance (CLint, mL/min/kg, eq 2), and subsequent predicted hepatic clearance (CLhep, mL/min/kg, eq 3) were determined employing the following equations [drawing 1] 1 [drawing 2] 2 [drawing 3] 3 The estimated percent contribution to metabolism was calculated from the percent substrate lost plots generated from metabolic incubations initiated with the addition of a test compound. Calculations compared the area under the curve (AUC) from conditions in the presence and absence of NADPH and buffer-only (control) conditions (eqs 4 and 5). AUC was calculated by using the trapezoidal method [drawing 4] 4 [drawing 5] 5
The analysis of in vitro samples from microsomal stability or plasma protein binding experiments was determined by employing LCMS/MS with an electrospray ionization-enabled 5500 Sciex instrument (Sciex, Foster City, CA) that was coupled to Agilent HPLC pumps and an autosampler (Agilent Technologies, Santa Clara, CA). Analytes were separated by gradient elution using a Kinetex C18 column (2.1 mm × 50 mm, 5 μm; Phenomenex, Torrance, CA) warmed to 35 °C. Mobile phase A was 0.5% formic acid in water, and mobile phase B was 0.5% formic acid in acetonitrile. […] The total run time was 2.8 min, and the HPLC flow rate was 0.5 mL/min. Mass spectral analyses were performed using multiple reaction monitoring, with transitions and voltages specific for each analyte using a Turbo Ion Spray source (source temperature of 500 °C) in positive ionization mode (5.0 kV spray voltage). Multiple reaction monitoring transitions were the following: 6110B8 (m/z 345.02 → 149.03, DP = 31; EP = 10; CE = 37 and CXP = 14), 6G3R (m/z 421.06 → 225.12, DP = 91; EP = 10; CE = 39 and CXP = 12), 5D22 (m/z 309.068 → 211.16, DP = 131; EP = 10; CE = 29 and CXP = 12), and carbamazepine (m/z 237 → 194, DP = 96; EP = 10; CE = 25 and CXP = 8). Data were analyzed using OS Sciex Analyst 1.5.1 (SCIEX, Framingham, MA), Graphpad Prism 10.1.0 (GraphPad Software, Boston, Massachusetts), and Microsoft Excel version 2310 (Microsoft, Redmond, WA).

[3] = Modified microsomal clearance assay with or without NADPH, mouse liver microsomes; assay type: in vitro ADME; conditions: for Estimated % Contribution to Metabolism Mouse CYPs/FMOs / Estimated % Contribution to Metabolism Mouse Esterases: MLM, from AUC with/without NADPH vs buffer only; for CLint scaled at 1 µM: mouse, liver microsomes, pH 7.4, MLM, reaction initiated by test compound
Description: It is of note that the experimental design for the initial round of microsomal clearance assays adds a test compound to microsomes before the reaction is started by the addition of nicotinamide adenine dinucleotide phosphate (NADPH). This design assumes that the major contributing drug-metabolizing enzymes are cytochrome P450s (CYPs). To investigate this further, the experimental design was modified where the reaction was initiated by the addition of a test compound and was carried out in the presence or absence of NADPH. […] By comparison of the measured intrinsic clearance in the presence and absence of NADPH, the contribution of non-CYP450 drug-metabolizing enzymes can be estimated.
Mammalian liver microsomes include CYPs, flavin monooxygenases (FMOs), glucuronosyltransferases ([…]), and esterases as part of their enzyme composition. In the presence of NADPH, which serves as a cofactor for CYP- and FMO-dependent reactions, the observed activity can be attributed to these enzymes. Similarly, UGTs require the cofactor uridine diphosphate glucuronic acid (UDPGA). Therefore, when NADPH and UDPGA are absent, any reduction in the compound can be ascribed only to esterase activity or chemical instability. […] This is based on two factors: (1) the stability of the compounds in HP buffer, which is used in the platelet assays, and (2) the low probability of drug metabolism occurring within the platelets themselves. Together, these minimize the chance that any metabolites with distinct PAR4 potencies could confound the results. By comparing the area under the curve of the compound metabolized from the microsomal incubations in the presence or absence of NADPH to the corresponding area under the curve of the buffer-only incubation, the percent contribution of CYPs and FMOs and esterases were estimated (Table S1). The major contributing enzyme toward the metabolism of 12 is esterases in both the human (96%) and mouse (98%). In contrast, the metabolism of 31 was primarily driven by CYPs and FMOs in both HLM (80%) and MLM (88%).
as §1
Clint (mL/min/kg) Estimated % Contribution to Metabolism
Compound Human Mouse Human Mouse +NADPH -NADPH +NADPH -NADPH CYPs/FMOs Esterases CYPs/FMOs Esterases […]

Row | Structure (SMILES) | direct inhibition of thrombin enzymatic activity [1] | CLint scaled at 1 µM [2] [mL/min/kg] | human CLhep [2] [mL/min/kg] | Estimated % Contribution to Metabolism Mouse CYPs/FMOs [3] [%] | Estimated % Contribution to Metabolism Mouse Esterases [3] [%] | CLint scaled at 1 µM ([3]; +NADPH) [mL/min/kg] | CLint scaled at 1 µM ([3]; -NADPH) [mL/min/kg]
1 | Cc1nc(NC(=O)c2cc(-c3ccccc3)n(-c3ccccc3)n2)n[nH]1 [Compound 7] | do not inhibition; also recorded: failed to directly inhibit | – | – | – | – | – | –
2 | Cc1cc(C(=O)Nc2n[nH]c(OC(F)F)n2)nn1-c1ccccc1 [Compound 9] | do not inhibition | 407 | 20 | – | – | – | –
3 | Cn1nc(C(=O)Nc2n[nH]c(-c3c(F)cccc3F)n2)cc1C1CC1 [Compound 12] | – | 478 | 20.1 | 2 | 98 | 9820 | 6240
4 | O=C(Nc1nc[nH]n1)c1nn(-c2ccccc2)c2c1CCC2 [Compound 17] | – | 49.6 | 14.8 | – | 0 | 789 | 27.8
5 | O=C(Nc1n[nH]c(-c2ccc(F)cc2F)n1)c1nn(-c2ccccc2)c2c1CCCC2 [Compound 31] | – | 459 | 20.1 | 88 | 12 | 10400 | 32.3
6 | COc1cccc(-c2nc(NC(=O)c3nn(-c4ccccc4)c4c3CCCC4)n[nH]2)c1 [Compound 32] | – | 285 | 19.6 | – | – | – | –
